Key:
Assay type in all cases: in vivo
[1] = test system: Diabrotica balteata (Corn Root Worm); assay: Example B1: Diabrotica balteata (corn root worm), sprayed maize sprouts on agar, L2 larvae; conditions: 96 h, application rate of 200 ppm, 4 days after infestation, in comparison to untreated samples, read-out: effect in at least one of the two categories (mortality or growth inhibition)
Experimental: Example B1: Diabrotica balteata (Corn Root Worm
Maize sprouts placed onto an agar layer in 24-well microtiter plates were treated with aqueous test solutions prepared from 10′000 ppm DMSO stock solutions by spraying. After drying, the plates were infested with L2 larvae (6 to 10 per well). The samples were assessed for mortality and growth inhibition in comparison to untreated samples 4 days after infestation.

[2] = test system: Plutella xylostella (Diamond Back Moth); assay: Example B4: Plutella xylostella (diamond back moth), treated artificial diet, eggs; conditions: 192 h, application rate of 200 ppm, 8 days after infestation, in comparison to untreated samples, read-out: effect in at least one of the two categories (mortality or growth inhibition)
Experimental: Example B4: Plutella xylostella (Diamond Back Moth
24-well microtiter plates with artificial diet were treated with aqueous test solutions prepared from 10′000 ppm DMSO stock solutions by pipetting. After drying, Plutella eggs were pipetted through a plastic stencil onto a gel blotting paper and the plate was closed with it. The samples were assessed for mortality and growth inhibition in comparison to untreated samples 8 days after infestation.

[3] = test system: Spodoptera littoralis (Egyptian Cotton Leaf Worm); assay: Example B7: Spodoptera littoralis (Egyptian cotton leaf worm), sprayed cotton leaf discs, L1 larvae; conditions: foliar, 72 h, application rate of 200 ppm, 3 days after infestation, in comparison to untreated samples
Experimental: Example B7: Spodoptera littoralis (Egyptian Cotton Leaf Worm
Cotton leaf discs were placed onto agar in 24-well microtiter plates and sprayed with aqueous test solutions prepared from 10′000 ppm DMSO stock solutions. After drying the leaf discs were infested with five L1 larvae. The samples were assessed for mortality, anti-feeding effect, and growth inhibition in comparison to untreated samples 3 days after infestation. Control of Spodoptera littoralis by a test sample is given when at least one of the categories mortality, anti-feedant effect, and growth inhibition is higher than the untreated sample.

[4] = test system: Euschistus heros (Neotropical Brown Stink Bug); assay: Example B2: Euschistus heros (neotropical brown stink bug), sprayed soybean leaves, N2 nymphs; conditions: 120 h, application rate of 200 ppm, 5 days after infestation, in comparison to untreated samples, read-out: effect in at least one of the two categories (mortality or growth inhibition)
Experimental: Example B2: Euschistus heros (Neotropical Brown Stink Bug
Soybean leaves on agar in 24-well microtiter plates were sprayed with aqueous test solutions prepared from 10′000 ppm DMSO stock solutions. After drying the leaves were infested with N2 nymphs. The samples were assessed for mortality and growth inhibition in comparison to untreated samples 5 days after infestation.

[5] = test system: Frankliniella occidentalis (Western Flower Thrips); assay: Example B3: Frankliniella occidentalis (western flower thrips), sprayed sunflower leaf discs; conditions: foliar, 168 h, application rate of 200 ppm, population of mixed ages, 7 days after infestation
Experimental: Example B3: Frankliniella occidentalis (Western Flower Thrips
Sunflower leaf discs were placed on agar in 24-well microtiter plates and sprayed with aqueous test solutions prepared from […] stock solutions. After drying the leaf discs were infested with a Frankliniella population of mixed ages. The samples were assessed for mortality 7 days after infestation.

[6] = test system: Myzus persicae (Green Peach Aphid); assay: Example B5: Myzus persicae (green peach aphid), feeding/contact activity, sprayed sunflower leaf discs; conditions: foliar, 144 h, application rate of 200 ppm, aphid population of mixed ages, 6 days after infestation
Experimental: Example B5: Myzus persicae (Green Peach Aphid). Feeding/Contact Activity
Sunflower leaf discs were placed onto agar in a 24-well microtiter plate and sprayed with aqueous test solutions prepared from 10′000 ppm DMSO stock solutions. After drying, the leaf discs were infested with an aphid population of mixed ages. The samples were assessed for mortality 6 days after infestation.

CCS(=O)(=O)c1cc(-c2nccc(C(F)(F)F)n2)cnc1-c1nc2cc(S(=N)(=O)C(F)(F)F)ccc2o1 (stereo not drawn) [P40, [2-[3-ethylsulfonyl-5-[4-(trifluoromethyl)pyrimidin-2-yl]-2-pyridyl]-1,3-benzoxazol-5-yl]-imino-oxo-(trifluoromethyl)-λ^6-sulfane]
≥ 80%: percent effect (mortality or growth inhibition) at 200 ppm [1] | percent effect (mortality or growth inhibition) at 200 ppm [2] | percent control (mortality, anti-feeding effect or growth inhibition) at 200 ppm [3] | effect (mortality or growth inhibition) at 200 ppm [4] | mortality at 200 ppm [5]

CCN=S(=O)(c1ccc2oc(-c3ncc(OCC(C)(F)F)cc3S(=O)(=O)CC)nc2c1)C(F)(F)F (stereo not drawn) [P27, [2-[5-(2,2-difluoropropoxy)-3-ethylsulfonyl-2-pyridyl]-1,3-benzoxazol-5-yl]-ethylimino-oxo-(trifluoromethyl)-λ^6-sulfane]
≥ 80%: percent effect (mortality or growth inhibition) at 200 ppm [1] | percent effect (mortality or growth inhibition) at 200 ppm [2] | percent control (mortality, anti-feeding effect or growth inhibition) at 200 ppm [3] | effect (mortality or growth inhibition) at 200 ppm [4] | mortality at 200 ppm [5] | mortality at 200 ppm [6]

CCN=S(=O)(c1ccc2oc(-c3ncccc3S(=O)(=O)CC)nc2c1)C(F)(F)F (stereo not drawn) [P19, ethylimino-[2-(3-ethylsulfonyl-2-pyridyl)-1,3-benzoxazol-5-yl]-oxo-(trifluoromethyl)-λ^6-sulfane]
≥ 80%: percent effect (mortality or growth inhibition) at 200 ppm [1] | percent effect (mortality or growth inhibition) at 200 ppm [2] | percent control (mortality, anti-feeding effect or growth inhibition) at 200 ppm [3] | effect (mortality or growth inhibition) at 200 ppm [4] | mortality at 200 ppm [6]

CCS(=O)(=O)c1cc(-c2ncc(C#N)cn2)cnc1-c1nc2cc(S(=N)(=O)C(F)(F)F)ccc2n1C (stereo not drawn) [P52, 2-[5-ethylsulfonyl-6-[1-methyl-5-(trifluoromethylsulfonimidoyl)benzimidazol-2-yl]-3-pyridyl]pyrimidine-5-carbonitrile]
≥ 80%: percent effect (mortality or growth inhibition) at 200 ppm [1] | percent effect (mortality or growth inhibition) at 200 ppm [2] | percent control (mortality, anti-feeding effect or growth inhibition) at 200 ppm [3] | effect (mortality or growth inhibition) at 200 ppm [4] | mortality at 200 ppm [6]

CCN=S(=O)(c1ccc2oc(-c3ncc(N=S(C)(C)=O)cc3S(=O)(=O)CC)nc2c1)C(F)(F)F (stereo not drawn) [P2, [2-[5-[[dimethyl(oxo)-λ^6-sulfanylidene]amino]-3-ethylsulfonyl-2-pyridyl]-1,3-benzoxazol-5-yl]-ethylimino-oxo-(trifluoromethyl)-λ^6-sulfane]
≥ 80%: percent effect (mortality or growth inhibition) at 200 ppm [1] | percent effect (mortality or growth inhibition) at 200 ppm [2] | percent control (mortality, anti-feeding effect or growth inhibition) at 200 ppm [3] | effect (mortality or growth inhibition) at 200 ppm [4] | mortality at 200 ppm [5]

CCN=S(=O)(c1ccc2c(c1)nc(-c1ncc(-c3ncc(C#N)cn3)cc1S(=O)(=O)CC)n2C)C(F)(F)F (stereo not drawn) [P53, 2-[5-ethylsulfonyl-6-[5-[N-ethyl-S-(trifluoromethyl)sulfonimidoyl]-1-methyl-benzimidazol-2-yl]-3-pyridyl]pyrimidine-5-carbonitrile]
≥ 80%: percent effect (mortality or growth inhibition) at 200 ppm [1] | percent effect (mortality or growth inhibition) at 200 ppm [2] | percent control (mortality, anti-feeding effect or growth inhibition) at 200 ppm [3] | effect (mortality or growth inhibition) at 200 ppm [4] | mortality at 200 ppm [6]

CCN=S(=O)(c1ccc2oc(-c3ncc(C4CC4)cc3S(=O)(=O)CC)nc2c1)C(F)(F)F (stereo not drawn) [P11, [2-(5-cyclopropyl-3-ethylsulfonyl-2-pyridyl)-1,3-benzoxazol-5-yl]-ethylimino-oxo-(trifluoromethyl)-λ^6-sulfane]
≥ 80%: percent effect (mortality or growth inhibition) at 200 ppm [1] | percent effect (mortality or growth inhibition) at 200 ppm [2] | percent control (mortality, anti-feeding effect or growth inhibition) at 200 ppm [3] | effect (mortality or growth inhibition) at 200 ppm [4] | mortality at 200 ppm [6]

CCS(=O)(=O)c1cc(C2CC2)cnc1-c1nc2cc(S(=N)(=O)C(F)(F)F)ccc2o1 (stereo not drawn) [P12, [2-(5-cyclopropyl-3-ethylsulfonyl-2-pyridyl)-1,3-benzoxazol-5-yl]-imino-oxo-(trifluoromethyl)-λ^6-sulfane]
≥ 80%: percent effect (mortality or growth inhibition) at 200 ppm [1] | percent effect (mortality or growth inhibition) at 200 ppm [2] | percent control (mortality, anti-feeding effect or growth inhibition) at 200 ppm [3] | effect (mortality or growth inhibition) at 200 ppm [4] | mortality at 200 ppm [5] | mortality at 200 ppm [6]

CCS(=O)(=O)c1cc(Oc2ccccn2)cnc1-c1nc2cc(S(=N)(=O)C(F)(F)F)ccc2n1C (stereo not drawn) [P50, [2-[3-ethylsulfonyl-5-(2-pyridyloxy)-2-pyridyl]-1-methyl-benzimidazol-5-yl]-imino-oxo-(trifluoromethyl)-λ^6-sulfane]
≥ 80%: percent effect (mortality or growth inhibition) at 200 ppm [1] | percent effect (mortality or growth inhibition) at 200 ppm [2] | percent control (mortality, anti-feeding effect or growth inhibition) at 200 ppm [3] | effect (mortality or growth inhibition) at 200 ppm [4] | mortality at 200 ppm [6]

CCN=S(=O)(c1ccc2c(c1)nc(-c1ncc(Oc3ccccn3)cc1S(=O)(=O)CC)n2C)C(F)(F)F (stereo not drawn) [P51, ethylimino-[2-[3-ethylsulfonyl-5-(2-pyridyloxy)-2-pyridyl]-1-methyl-benzimidazol-5-yl]-oxo-(trifluoromethyl)-λ^6-sulfane]
≥ 80%: percent effect (mortality or growth inhibition) at 200 ppm [1] | percent effect (mortality or growth inhibition) at 200 ppm [2] | percent control (mortality, anti-feeding effect or growth inhibition) at 200 ppm [3] | effect (mortality or growth inhibition) at 200 ppm [4] | mortality at 200 ppm [6]

CCS(=O)(=O)c1cccnc1-c1nc2cc(S(=O)(=NC)C(F)(F)F)ccc2o1 (stereo not drawn) [P18, [2-(3-ethylsulfonyl-2-pyridyl)-1,3-benzoxazol-5-yl]-methylimino-oxo-(trifluoromethyl)-λ^6-sulfane]
≥ 80%: percent effect (mortality or growth inhibition) at 200 ppm [1] | percent effect (mortality or growth inhibition) at 200 ppm [2] | percent control (mortality, anti-feeding effect or growth inhibition) at 200 ppm [3] | effect (mortality or growth inhibition) at 200 ppm [4] | mortality at 200 ppm [6]

CCS(=O)(=O)c1ccc(-n2cncn2)nc1-c1nc2cc(S(=N)(=O)C(F)(F)F)ccc2n1C (stereo not drawn) [P44, [2-[3-ethylsulfonyl-6-(1,2,4-triazol-1-yl)-2-pyridyl]-1-methyl-benzimidazol-5-yl]-imino-oxo-(trifluoromethyl)-λ^6-sulfane]
≥ 80%: percent effect (mortality or growth inhibition) at 200 ppm [1] | percent effect (mortality or growth inhibition) at 200 ppm [2] | percent control (mortality, anti-feeding effect or growth inhibition) at 200 ppm [3] | mortality at 200 ppm [6]

CCS(=O)(=O)c1cc(Oc2ccccn2)cnc1-c1nc2cc(S(=N)(=O)C(F)(F)F)ccc2o1 (stereo not drawn) [P9, [2-[3-ethylsulfonyl-5-(2-pyridyloxy)-2-pyridyl]-1,3-benzoxazol-5-yl]-imino-oxo-(trifluoromethyl)-λ^6-sulfane]
≥ 80%: percent effect (mortality or growth inhibition) at 200 ppm [1] | percent effect (mortality or growth inhibition) at 200 ppm [2] | percent control (mortality, anti-feeding effect or growth inhibition) at 200 ppm [3] | effect (mortality or growth inhibition) at 200 ppm [4] | mortality at 200 ppm [6]

— patent US12503461B2, “Pesticidally active heterocyclic derivatives with sulfur and sulfoximine containing substituents” (SYNGENTA CROP PROTECTION AG, priority 2019, dated 2025)
